Data as given in patent US8476255B2, “Histone deacetylase inhibitors” (Orchid Chemicals & Pharmaceuticals Limited, priority 2007, dated 2013).

How the values were obtained:
[1] = system: NCIH460, HCT116 and U251 cells; assay: Anti-cancer screen, mean GI50 over cell lines; format: cell-based; details: mean over cell lines; read-out: Cell growth inhibition Mean GI50
Protocol: (§1) Experimental drugs were screened for anti-cancer activity in three cell lines using five concentrations for each compound. The cell lines —HCT 116 (colon), NCIH460 (lung) and U251 (glioma) were maintained in DMEM containing 10% fetal bovine serum. 96-well microtiter plates are inoculated with cells in 100 μL of cell suspension (5×10^4 cells/mL) for 24 hours at 37° C., 5% CO2, 95% air and 100% relative humidity. A separate plate with these cell lines is also inoculated to determine cell viability before the addition of the compounds (T0).
(§2) Following 24-hours incubation, test compounds were added to the 96 well plates. Each plate contains one of the above cell lines and the following samples in triplicate: five different dilutions (0.01, 0.1, 1, 10 and 100 μM) of four test compounds, appropriate dilutions of a cytotoxic standard and growth medium (untreated) wells. Test compounds were dissolved in DMSO to prepare 20 mM stock solutions on the day of drug addition and serial dilutions were carried out in complete growth medium at 2× strength such that 100 μL added to wells gave final concentrations (0.01, 0.1, 1, 10 and 100 μM) in the well. SAHA was used as standard drug in these experiments.
(§3) For T0 measurement, 24 hours after seeding the cells, 20 μL of 3-(4,5-dimethyl-2-thiazolyl)-2,5-diphenyl-2H-tetrazolium (MTT) solution per well was added to the ‘T0’ plate and incubated for 3 hours at 37° C. in a CO2 incubator. The plate containing cells and test compounds was treated similarly after 48 hours of incubation. After 3 hours of MTT addition, well contents were aspirated carefully followed by addition of 150 μL DMSO per well. Plates were agitated to ensure dissolution of the formazan crystals in DMSO and absorbance was read at 570 nm (A570).
(§4) (Mosmann T. Rapid colorimetric assay for cellular growth and survival: application to proliferation and cytotoxicity assays. J Immunol Methods 1983; 65(1-2): 55-63; Anne Monks et al. Feasibility of high-flux anticancer drug screen using a diverse panel of cultured human tumor cell lines”. JNCI, Vol. 83, No. 11, 1991).

HCT 116 (colon) cells = assay: Anti-cancer screen (MTT), HCT 116; format: cell-based; details: Homo sapiens, HCT-116, HCT116, 48 hours, MTT; for GI50: read-out: Cell growth inhibition HCT116 (Colon) GI50; for CC50: read-out: Cell growth inhibition HCT116 (Colon) LC50; for IC (TGI): read-out: Cell growth inhibition HCT116 (Colon) TGI
Protocol: as §1, §2, §3, §4

NCIH460 (lung) cells = assay: Anti-cancer screen (MTT), NCIH460; format: cell-based; details: Homo sapiens, NCI-H460, NCIH460, 48 hours, MTT; for GI50: read-out: Cell growth inhibition NCIH460 (Lung) GI50; for LC50: read-out: Cell growth inhibition NCIH460 (Lung) LC50; for IC (TGI): read-out: Cell growth inhibition NCIH460 (Lung) TGI
Protocol: as §1, §2, §3, §4

U251 (glioma) cells = assay: Anti-cancer screen (MTT), U251; format: cell-based; details: Homo sapiens, U-251, U251, 48 hours, MTT; for GI50: read-out: Cell growth inhibition U251 (Glioma) GI50; for LC50 (concentration giving 50% net cell kill relative to the time-zero cell count): read-out: Cell growth inhibition U251 (Glioma) LC50; for IC (TGI): read-out: Cell growth inhibition U251 (Glioma) TGI
Protocol: as §1, §2, §3, §4

[2] = system: HDAC (Mouse Liver Extract); assay: HDAC inhibition assay using Boc-Lys(Ac)-AMC substrate; format: biochemical; details: mouse liver enzyme
Protocol: Inhibition of HDAC has been implicated to modulate transcription and to induce apoptosis or differentiation in cancer cells. The fluorometric assay provides a fast and fluorescence based method that eliminates radioactivity, extractions or chromatography, as used in traditional assays. The assay is based on two steps. First, the HDAC fluorometric substrate, which comprises an acetylated lysine side chain, is incubated with a sample containing HDAC activity (Mouse Liver Extract). Deacetylation of the substrate sensitizes the substrate, in the second step; treatment with the Trypsin stop solution produces a fluorophore that can be easily analyzed using fluorescence plate reader. Assay was done in 96-well black microplate and total volume of the assay was […]. […] The plate was pre-incubated at 37° C. for 5 minutes. […] The plate was incubated at 37° C. for 30 min. The reaction was stopped by adding 100 μL, of Trypsin stop solution and incubating at 37° C. for 15-30 min. Measuring the fluorescence at excitation wavelength of 360 nm and emission wavelength of 460 nm monitored the release of AMC. Buffer alone and substrate alone served as blank. […] (Dennis Wegener et al, Anal. Biochem, 321, 2003, 202-208).

Structure (SMILES)	GI50 [1] [µM]	GI50 (HCT 116 (colon) cells) [µM]	CC50 (HCT 116 (colon) cells) [µM]	IC (TGI) (HCT 116 (colon) cells) [µM]	GI50 (NCIH460 (lung) cells) [µM]	LC50 (NCIH460 (lung) cells) [µM]	IC (TGI) (NCIH460 (lung) cells) [µM]	GI50 (U251 (glioma) cells) [µM]	LC50 (concentration giving 50% net cell kill relative to the time-zero cell count) (U251 (glioma) cells) [µM]	IC (TGI) (U251 (glioma) cells) [µM]	HDAC inhibition % (1 μM) [2] [%]	HDAC inhibition % (10 μM) [2] [%]	IC50 [2] [µM]
CSc1ccc(/C=C(/C(=O)NCCCCCCC(=O)NO)c2ccc(F)cc2)cc1 [Compound 84, 7-(2-(4-Fluorophenyl)-3-(4-methylthiophenyl)acrylamido)-N-hydroxy heptanamide]	2.6	1.2	> 100	21	2.3	70	21	4.2	95	21	90.0	94.3	0.06
COc1ccc(/C=C(/C(=O)NCc2ccc(C(=O)Nc3ccccc3N)cc2)c2ccccc2)cc1 [Compound 2, N-(2-Aminophenyl)-4-((3-(4-methoxyphenyl)-2-(phenyl)acrylamido)methyl)benzamide]	5	4.4	> 100	9.4	2.9	> 100	8.2	7.6	> 100	39	2.3	6.8	
CS(=O)(=O)c1ccc(/C=C(/C(=O)NCCCCCC(=O)NO)c2ccc(F)cc2)cc1 [Compound 87, 6-(2-(4-Fluorophenyl)-3-(4-methylsulfonylphenyl)acrylamido)-N-hydroxy hexanamide]	> 100	44	> 100	88	> 100	> 100	> 100	20	> 100	> 100	43.6	81.6	
COc1ccc(/C=C(/C(=O)NCc2ccc(C(=O)NO)cc2)c2ccc(C)cc2)cc1OC [Compound 62, 4-((2-(4-Methylphenyl)-3-(3,4-dimethoxyphenyl)acrylamido)methyl)-N-hydroxybenzamide]	90	90	> 100	> 100	> 100	> 100	> 100	> 100	> 100	> 100	83.2	100.0	
CSc1ccc(/C=C(/C(=O)NCc2ccc(C(=O)Nc3ccccc3N)cc2)c2cccs2)cc1 [Compound 18, N-(2-Aminophenyl)-4-((3-(4-methylthiophenyl)-2-(thiophen-2-yl)acrylamido)methyl)benzamide]	3.8	5	> 100	20	4.1	> 100	20	2.2	7	4	28.7	36.7	
O=C(CCCCCNC(=O)NC(=O)/C(=C/c1ccccc1)c1ccccc1)NO [Compound 101]	6.6	2.9	13.2	7.6	10	82	45	7	76	35	89.5	97.1	0.07
Nc1ccccc1NC(=O)c1ccc(CNC(=O)/C(=C/c2ccc([N+](=O)[O-])s2)c2ccc(F)cc2)cc1 [Compound 7, N-(2-Aminophenyl)-4-((3-(5-nitrothiophen-2-yl)-2-(4-fluorophenyl)acrylamido)methyl)benzamide]	9.2	4.5	71.2	9.6	6.2	73.8	26.5	17	76	34.5	12.4	19.4	
COc1ccc(/C=C(/C(=O)NCc2ccc(C(=O)Nc3ccccc3N)cc2)c2ccccc2Cl)cc1OC [Compound 30, N-(2-Aminophenyl)-4-((3-(3,4-dimethoxyphenyl)-2-(2-chlorophenyl)acrylamido)methyl)benzamide]	50.5	100	> 100	> 100	> 100	> 100	> 100	1	> 100	> 100	7.1	30.1	
CSc1ccc(/C=C(/C(=O)NCc2ccc(C(=O)Nc3ccccc3N)cc2)c2ccccc2F)cc1 [Compound 24, N-(2-Aminophenyl)-4-((3-(4-methylthiophenyl)-2-(2-fluorophenyl)acrylamido)methyl)benzamide]	5.8	3.8	> 100	12	5		32	8.5		30	41.3	51.4	
CSc1ccc(/C=C(/C(=O)NCc2ccc(C(=O)NO)cc2)c2ccsc2)cc1 [Compound 59, 4-((2-(Thiophen-3-yl)-3-(4-methylthiophenyl)acrylamido)methyl)-N-hydroxybenzamide]	2.3	3	60	15	2.3	30	7	1.5	65	5.5	76.6	96.3	0.03
COc1ccc(/C=C(/C(=O)NCc2ccc(/C=C/C(=O)NO)cc2)c2ccc(F)cc2)cc1OC [Compound 77, (1E)-N-(4-(3-(Hydroxyamino)-3-oxoprop-1-enyl)benzyl)-2-(4-fluorophenyl)-3-(3,4-dimethoxyphenyl)acrylamide]	1.7	0.5	50	6	2	> 100	70	2.6	> 100	19	90.6	98.5	0.05
COc1ccc(/C(=C\c2ccc(OC)c(OC)c2)C(=O)NCc2ccc(C(=O)Nc3ccccc3N)cc2)cc1 [Compound 27, N-(2-Aminophenyl)-4-((3-(3,4-dimethoxyphenyl)-2-(4-methoxyphenyl)acrylamido)methyl)benzamide]	1.2	0.4	> 100	> 100	2.1		> 100				37.1	47.2	
